Assay results published in patent publication US20230002372A1, “AZAINDOLE CARBOXAMIDE COMPOUNDS FOR THE TREATMENT OF MYCOBACTERIAL INFECTIONS” (THE GLOBAL ALLIANCE FOR TB DRUG DEVELOPMENT, INC., priority 2019, published 2023).
Values after ≈ are worked out from the molar mass of the structure shown.

What was measured:
M tb H37Rv = test: MIC determination against M tb H37Rv (green fluorescent protein reporter assay; MIC-MABA); assay type: cell-based, Mycobacterium tuberculosis; conditions: Mycobacterium tuberculosis, H37RV, 240 h, read-out: M. TB H37Rv: MIC-MABA: MIC, M. tb H37Rv; 7H9 broth; 10 days exposure; MIC = lowest concentration inhibiting fluorescence by 90%
Mycobacterium abscessus = test: MIC against Mycobacterium abscessus (Mab_ATCC, MHII broth); assay type: cell-based; conditions: Mycobacteroides abscessus; Mycobacterium abscessus ATCC strain; Mueller-Hinton broth (MHII)
Description: Key for Tables: MIC: Minimum Inhibitory Concentration; MABA: microplate-based Alamar Blue assay; Mab: Mycobacterium abscessus; ATCC: American Type Culture Collection; and MHII: Mueller-Hinton broth.

SMILES	MIC (M tb H37Rv)	MIC (Mycobacterium abscessus)
Cc1nc2[nH]c(C(=O)N[C@H]3CC[Si](C)(C)C3)cc2c(F)c1F (single isomer, unassigned) [MPL-295B]	< 0.004 µg/mL	0.12 µg/mL (≈ 0.371 µM)
COc1ccc2cc(C(=O)N[C@@H]3CCC[Si](C)(C)CC3)[nH]c2n1 (single isomer, unassigned) [MPL-466B]	> 1 µg/mL	8 µg/mL (≈ 24.1 µM)
Cc1cc(Cl)c2cc(C(=O)N[C@H]3C[C@H]4C[C@@H]([C@@H]3C)C4(C)C)[nH]c2n1 [MPL-045, 4-chloro-6-methyl-N-[(1S,2S,3S,5R)-2,6,6-trimethylnorpinan-3-yl]-1H-pyrrolo[2,3-b]pyridine-2-carboxamide]	0.069 µg/mL (≈ 0.199 µM)	2 µg/mL (≈ 5.78 µM)
COc1ccc2cc(C(=O)N[C@H]3CCC[Si](C)(C)CC3)[nH]c2n1 (single isomer, unassigned) [MPL-466A]	0.042 µg/mL (≈ 0.127 µM)	0.25 µg/mL (≈ 0.754 µM)
Cc1nc2[nH]c(C(=O)NC3CC[Si](C)(C)C3)cc2c(F)c1F (stereo not shown) [MPL-295, N-(1,1-dimethylsilolan-3-yl)-4,5-difluoro-6-methyl-1H-pyrrolo[2,3-b]pyridine-2-carboxamide]	0.024 µg/mL (≈ 0.0742 µM)	0.28 µg/mL (≈ 0.866 µM)
C[C@@H]1[C@@H](NC(=O)c2cc3c(Br)ccnc3[nH]2)C[C@H]2C[C@@H]1C2(C)C [MPL-012, 4-bromo-N-[(1S,2S,3S,5R)-2,6,6-trimethylnorpinan-3-yl]-1H-pyrrolo[2,3-b]pyridine-2-carboxamide]	0.048 µg/mL (≈ 0.128 µM)	4 µg/mL (≈ 10.6 µM)
Cc1cc(F)c2cc(C(=O)NC3CCC(C)(C)CC3)[nH]c2n1 [MPL-118, N-(4,4-dimethylcyclohexyl)-4-fluoro-6-methyl-1H-pyrrolo[2,3-b]pyridine-2-carboxamide]	0.017 µg/mL (≈ 0.056 µM)	1 µg/mL (≈ 3.3 µM)
Cc1nc2[nH]c(C(=O)NC3CC[Si](C)(C)CC3)cc2c(F)c1C [MPL-471, N-(1,1-dimethylsilinan-4-yl)-4-fluoro-5,6-dimethyl-1H-pyrrolo[2,3-b]pyridine-2-carboxamide]	0.069 µg/mL (≈ 0.207 µM)	1 µg/mL (≈ 3 µM)
Cc1nc2[nH]c(C(=O)NC3CCC[Si](C)(C)CC3)cc2c(F)c1Cl (stereo not shown) [MPL-316, 5-chloro-N-(1,1-dimethylsilepan-4-yl)-4-fluoro-6-methyl-1H-pyrrolo[2,3-b]pyridine-2-carboxamide]	0.015 µg/mL (≈ 0.0408 µM)	0.16 µg/mL (≈ 0.435 µM)
Cc1nc2[nH]c(C(=O)NC3CCC(C)(C)CC3)cc2c(F)c1F [MPL-067, N-(4,4-dimethylcyclohexyl)-4,5-difluoro-6-methyl-1H-pyrrolo[2,3-b]pyridine-2-carboxamide]	0.01 µg/mL (≈ 0.0311 µM)	0.25 µg/mL (≈ 0.778 µM)
Cc1cc(Cl)c2cc(C(=O)NC3CCC[Si](C)(C)CC3)[nH]c2n1 (stereo not shown) [MPL-274, 4-chloro-N-(1,1-dimethylsilepan-4-yl)-6-methyl-1H-pyrrolo[2,3-b]pyridine-2-carboxamide]	0.01 µg/mL (≈ 0.0286 µM)	0.75 µg/mL (≈ 2.14 µM)
Cc1nc2[nH]c(C(=O)NC3CC[Si](C)(C)CC3)cc2c(F)c1F [MPL-229, N-(1,1-dimethylsilinan-4-yl)-4,5-difluoro-6-methyl-1H-pyrrolo[2,3-b]pyridine-2-carboxamide]	0.0058 µg/mL (≈ 0.0172 µM)	0.12 µg/mL (≈ 0.356 µM)
Cc1nc2[nH]c(C(=O)NC3CC[Si](C)(C)CC3)cc2c(C)c1Cl [MPL-239, 5-chloro-N-(1,1-dimethylsilinan-4-yl)-4,6-dimethyl-1H-pyrrolo[2,3-b]pyridine-2-carboxamide]	0.0078 µg/mL (≈ 0.0223 µM)	16 µg/mL (≈ 45.7 µM)
COc1ccc2cc(C(=O)NC3CCC(C)(C)CC3)[nH]c2n1 [MPL-453, N-(4,4-dimethylcyclohexyl)-6-methoxy-1H-pyrrolo[2,3-b]pyridine-2-carboxamide]	0.284 µg/mL (≈ 0.942 µM)	0.5 µg/mL (≈ 1.66 µM)
Cc1cc(Cl)c2cc(C(=O)NC3CC[Si](C)(C)CC3)[nH]c2n1 [MPL-208, 4-chloro-N-(1,1-dimethylsilinan-4-yl)-6-methyl-1H-pyrrolo[2,3-b]pyridine-2-carboxamide]	0.0045 µg/mL (≈ 0.0134 µM)	1 µg/mL (≈ 2.98 µM)
Cc1nc2[nH]c(C(=O)N[C@@H]3CCC[Si](C)(C)CC3)cc2c(F)c1Cl (single isomer, unassigned) [MPL-316A]	0.014 µg/mL (≈ 0.0381 µM)	0.19 µg/mL (≈ 0.516 µM)
Cc1nc2[nH]c(C(=O)NC3CC[Si](C)(C)CC3)cc2c(F)c1Cl [MPL-232, 5-chloro-N-(1,1-dimethylsilinan-4-yl)-4-fluoro-6-methyl-1H-pyrrolo[2,3-b]pyridine-2-carboxamide]	0.03 µg/mL (≈ 0.0848 µM)	0.38 µg/mL (≈ 1.07 µM)
COc1cc(F)nc2[nH]c(C(=O)NC3CC[Si](C)(C)CC3)cc12 [MPL-200, N-(1,1-dimethylsilinan-4-yl)-6-fluoro-4-methoxy-1H-pyrrolo[2,3-b]pyridine-2-carboxamide]	0.072 µg/mL (≈ 0.215 µM)	16 µg/mL (≈ 47.7 µM)
O=C(NC1CCCCCCC1)c1cc2c(Cl)cncc2[nH]1 [MPL-034, 4-chloro-N-cyclooctyl-1H-pyrrolo[2,3-c]pyridine-2-carboxamide]	0.25 µg/mL (≈ 0.818 µM)	2 µg/mL (≈ 6.54 µM)
Cc1cc(Cl)c2cc(C(=O)NC3CCC(C)(C)CC3)[nH]c2n1 [MPL-119, 4-chloro-N-(4,4-dimethylcyclohexyl)-6-methyl-1H-pyrrolo[2,3-b]pyridine-2-carboxamide]	0.14 µg/mL (≈ 0.438 µM)	0.5 µg/mL (≈ 1.56 µM)
COc1cc(F)c2cc(C(=O)NC3CC[Si](C)(C)CC3)[nH]c2n1 [MPL-468, N-(1,1-dimethylsilinan-4-yl)-4-fluoro-6-methoxy-1H-pyrrolo[2,3-b]pyridine-2-carboxamide]	0.023 µg/mL (≈ 0.0686 µM)	0.12 µg/mL (≈ 0.358 µM)
Cc1cc(Cl)c2cc(C(=O)NC3CC4CCC3(C)C4(C)C)[nH]c2n1 (stereo not shown) [MPL-195, 4-chloro-6-methyl-N-(1,7,7-trimethylnorbornan-2-yl)-1H-pyrrolo[2,3-b]pyridine-2-carboxamide]	0.014 µg/mL (≈ 0.0405 µM)	2 µg/mL (≈ 5.78 µM)
CC1(C)CCC(NC(=O)c2cc3cc(Cl)ncc3[nH]2)CC1 [MPL-127, 5-chloro-N-(4,4-dimethylcyclohexyl)-1H-pyrrolo[2,3-c]pyridine-2-carboxamide]	0.54 µg/mL (≈ 1.77 µM)	8 µg/mL (≈ 26.2 µM)
Cc1cc2cc(C(=O)N[C@H]3C[C@H]4C[C@@H]([C@@H]3C)C4(C)C)[nH]c2cn1 [MPL-124, 5-methyl-N-[(1S,2S,3S,5R)-2,6,6-trimethylnorpinan-3-yl]-1H-pyrrolo[2,3-c]pyridine-2-carboxamide]	3.1 µg/mL (≈ 9.95 µM)	16 µg/mL (≈ 51.4 µM)
C[Si]1(C)CCC(NC(=O)c2cc3ccc(OC4CC4)nc3[nH]2)CC1 [MPL-464, 6-(cyclopropoxy)-N-(1,1-dimethylsilinan-4-yl)-1H-pyrrolo[2,3-b]pyridine-2-carboxamide]	0.124 µg/mL (≈ 0.361 µM)	1 µg/mL (≈ 2.91 µM)
Cc1cc(F)c2cc(C(=O)NC3CCCCCCC3)[nH]c2n1 [MPL-044, N-cyclooctyl-4-fluoro-6-methyl-1H-pyrrolo[2,3-b]pyridine-2-carboxamide]	0.013 µg/mL (≈ 0.0429 µM)	2 µg/mL (≈ 6.59 µM)
COc1ccc2cc(C(=O)NC3CC[Si](C)(C)CC3)[nH]c2n1 [MPL-387, N-(1,1-dimethylsilinan-4-yl)-6-methoxy-1H-pyrrolo[2,3-b]pyridine-2-carboxamide]	0.163 µg/mL (≈ 0.513 µM)	0.5 µg/mL (≈ 1.57 µM)
Cc1cc(Cl)c2cc(C(=O)NC3CC[Si](C)(C)C3)[nH]c2n1 (stereo not shown) [MPL-401, 4-chloro-N-(1,1-dimethylsilolan-3-yl)-6-methyl-1H-pyrrolo[2,3-b]pyridine-2-carboxamide]	0.016 µg/mL (≈ 0.0497 µM)	0.75 µg/mL (≈ 2.33 µM)
Cc1nc2[nH]c(C(=O)NC3CC[Si](C)(C)CC3)cc2c(Cl)c1Cl [MPL-230, 4,5-dichloro-N-(1,1-dimethylsilinan-4-yl)-6-methyl-1H-pyrrolo[2,3-b]pyridine-2-carboxamide]	0.004 µg/mL (≈ 0.0108 µM)	16 µg/mL (≈ 43.2 µM)
